Test results reported in the CheMixHub ionic liquid set.
± gives the uncertainty stated by the source.

Assay: xn = mol fraction of the nth substance listed

## CCCC[n+]1ccn(C)c1.[O-][Cl+3]([O-])([O-])[O-] + CCO
303.15 K, 101 kPa, x2 = 0.637
  viscosity: 8.7 ± 4 mPa·s
303.15 K, 101 kPa, x2 = 0.79
  viscosity: 4 mPa·s
303.15 K, 101 kPa, x2 = 0.86
  viscosity: 3.6 mPa·s
313.15 K, 101 kPa, x2 = 0.592
  viscosity: 7.4 mPa·s
313.15 K, 101 kPa, x2 = 0.637
  viscosity: 6.7 mPa·s

## CCCC[n+]1ccn(C)c1.O=S(=O)([N-]S(=O)(=O)C(F)(F)F)C(F)(F)F + CCCCCCCCO
298 K, 100 kPa, x1 = 1
  viscosity: 49.7 ± 1.3 mPa·s

## CCCCCC[n+]1ccn(C)c1.F[P-](F)(F)(F)(F)F + O
293.15 K, 101 kPa, x2 = 0.22
  viscosity: 269 ± 36 mPa·s
295.15 K, 101 kPa, x2 = 0.22
  electrical conductivity: 0.1 ± 0.02 S/m
